For the assay, the system named is fetal dopaminergic neurons in culture. The assay can be described thus: Neuroprotection and differentiation of dopaminergic (TH+) neurons in primary culture of rat embryo mesencephalon (spontaneous degeneration model). The assay is classed as cell-based. More on the design: key to Diff (qualitative assessment of neuron differentiation): + indicates that the neurons have a morphology similar to that of the control; ++ and +++ indicate the presence of neurons whose extensions are longer and more numerous than the control neurons; ++ and +++ indicate the presence of neurons whose extensions are longer and more numerous than the control neurons; − indicates that the neurons have neurites that are shorter and less numerous than the control neurons. As to conditions: for Diff (qualitative assessment of neuron differentiation): dopaminergic neurons in culture; for viability at 0.1 µM: Rattus norvegicus, Neuron, 192 h, read-out: % Neurons relative to the control ±SEM. Here is the method:
Dissection consists in extracting the embryos from the uterus of a rat at fifteen days of gestation. The brain of each embryo is then dissected under a binocular magnifier in order to extract the ventral mesencephalon.
The mesencephalons are gathered in a flask containing 2 ml of L15 medium and then mechanically dissociated (30 times), and then 5 ml of L15 medium are added. The suspension is left to rest for 8 minutes. 5 ml of the supernatant are recovered in a new flask and the cells are dissociated again (30 times). 5 ml of L15 are again added and the suspension is left to rest for 8 minutes. 5 ml of supernatant are added to the preceding. The cells thus extracted are then centrifuged for 5 minutes at 1,000 rpm. The cell pellet is taken up in Neurobasal medium supplemented with 1% B27, 1% glutamine and 1% penicillin/streptomycin mixture. The cells are then inoculated at the appropriate dilution (0.6 embryo per well on a 24-well plate and 0.4 per well on a 48-well plate). The cultures are incubated at 37° C. in a humid atmosphere enriched with 5% CO2 in a 24- or 48-well plate.
After 24 hours, two-thirds of the medium of each well is replaced by new medium enriched with the compound of the invention to test at the appropriate dilution. The medium is replaced in the same way after 4 days of culture.
At 8 days of culture, the cells are fixed by a 4% formaldehyde solution and then washed three times with PBS. The cells then undergo several immunohistochemistry procedures: • anti-tyrosine hydroxylase (TH) visualized by a secondary antibody coupled to a fluorochrome that emits in the red spectrum (Cy3). • anti-MAP2 (MAP=microtubule-associated protein) (neuron marker) visualized by a secondary antibody coupled to a fluorochrome that emits in the green spectrum (alexa488). • DAPI (4′,6-diamidino-2-phenylindole), a nuclear marker that emits in the blue spectrum.
Neuroprotection is evaluated by counting TH positive neurons directly under the microscope or MAP2 positive on images, at 15 images per well, expressed as a percentage of the untreated control. The experiments include three wells per condition. Three independent experiments are carried out under these conditions. Total neurite length per cell calculated by the Neurite Outgrowth software by Explora Nova on 20 neurons photographed independently per well gives an indication of the state of maturation of the dopaminergic neurons.
The compounds of the invention were tested on a model of spontaneous degeneration of dopaminergic neurons in culture.
This model consists of culturing cells of the ventral mesencephalon of rat embryo. This part of the brain in culture contains dopaminergic neurons and other primarily GABAergic neurons. These cultures are also composed of glial cells, namely astrocytes, oligodendrocytes and microglia. This is a model of spontaneous degeneration of dopaminergic neurons which mimics certain aspects of Parkinson's disease.
The neuroprotective effect of the compounds of the invention was evaluated by counting dopaminergic neurons (TH^+) marked by tyrosine hydroxylase (TH) immunohistochemistry after 8 days of culture. Thus the compounds were evaluated at 1 nM, 10 nM, 100 nM and 1 μM and were compared with the activity of dibutyryl cyclic AMP (db-cAMP) used as the reference product.
In order to evaluate more quantitatively the activity of the compounds of the invention, neurite growth per cell was measured using the Neurite Outgrowth software developed by Explora Nova. A minimum of 60 neurons per condition were photographed and studied, and the results were then averaged and normalized by the number of neurons considered.

Where [1] appears, read: 100 nM, survival of TH+ dopaminergic neurons after 8 days of culture.

On to `CCCCCCCCCCCCCCC(=O)Nc1ccc2nc(CCCCCC)c(CCCC)nc2c1` [Compound F4, N-(2-hexyl-3-butylquinoxalin-6-yl)pentadecanamide], for which, where the note is “100 nM”, the “Diff (qualitative assessment of neuron differentiation)” value was “++”. Besides, under setting [1], the viability at 0.1 µM is 101 ± 2.2%.

For `C#CC(O)CCCCc1cnc2ccccc2c1` (stereo not drawn) [Compound Z2, reference compound], where the note is “100 nM”, the “Diff (qualitative assessment of neuron differentiation)” value is “+”. The viability at 0.1 µM under setting [1] came to 118 ± 6.1%.

Turning to `CCCCCCCCCCCCCCC(=O)Nc1ccc2nccnc2c1` [Compound F1, Nr-(quinoxalin-6-yl)pentadecanamide], the “Diff (qualitative assessment of neuron differentiation)” value (100 nM) is “+++”. Also, the viability at 0.1 µM under setting [1] was determined as 125 ± 5.5%.

With `CCCCCCCCCCCCCCCNc1ccc2nc(C)cnc2c1` [Compound G2, N-(2-methylquinoxalin-6-yl)pentadecanamine], the “Diff (qualitative assessment of neuron differentiation)” value (100 nM) is reported as “+++”. In addition, under setting [1], the viability at 0.1 µM is 135 ± 4.4%.

Take `CCCCCCCCCCCCCCC(=O)Nc1ccc2ncc(CCCC)nc2c1` [Compound F3, N-(3-butylquinoxalin-6-yl)pentadecanamide]: the “Diff (qualitative assessment of neuron differentiation)” value (100 nM) is given as “++”. Moreover, under setting [1], the viability at 0.1 µM is 114 ± 3.8%.

Turning to `CCCCCCCCCCCCCCCNc1ccc2nccnc2c1` [Compound G1, N-(quinoxalin-6-yl)pentadecanamine], the “Diff (qualitative assessment of neuron differentiation)” value (100 nM) is recorded as “+++”. In addition, under setting [1], the viability at 0.1 µM is 131 ± 10.9%.

For the compound `C#CC(O)CCC#Cc1cnc2ccccc2c1` (stereo not drawn) [Compound Z1, reference compound], the “dose-response of effect on survival of dopaminergic neurons” value (1 nM, 10 nM, 100 nM and 1 μM, FIG. 2) was “zero at all the concentrations tested”. Moreover, the “Diff (qualitative assessment of neuron differentiation)” value (100 nM) was “−”. The viability at 0.1 µM under setting [1] was found to be 98.2 ± 6.3%.

As for `CCCCCCCCCCCCCCCNc1ccc2nc(CCCCCC)c(CCCC)nc2c1` [Compound G4, N-(2-hexyl-3-butylquinoxalin-6-yl)pentadecanamine], the “Diff (qualitative assessment of neuron differentiation)” value (100 nM) is recorded as “++”. The viability at 0.1 µM under setting [1] was 111 ± 5.3%.

As for `CCCCCCCCCCCCCCCNc1ccc2ncc(CCCC)nc2c1` [Compound G3, N-(3-butylquinoxalin-6-yl)pentadecanamine], the “Diff (qualitative assessment of neuron differentiation)” value (100 nM) is reported as “++”. In addition, the viability at 0.1 µM under setting [1] amounted to 113 ± 7%.

As for `OCCCCCCCCCCCC#Cc1ccc2ccccc2n1` [Compound K2, 13-(quinolin-2-yl)tridec-12-yn-1-ol], the “Diff (qualitative assessment of neuron differentiation)” value (100 nM) is on record as “++”. Moreover, the viability at 0.1 µM under setting [1] worked out at 121 ± 3.1%.

As for `OCCCCCCCCCCCCCCCNc1ccc2nccnc2c1` [Compound G5, 15-hydroxy-N-(quinoxalin-6-yl)pentadecylamine], the “Diff (qualitative assessment of neuron differentiation)” value (100 nM) is listed as “++”. The viability at 0.1 µM under setting [1] amounted to 130 ± 7%.

For `CCCCC#Cc1cnc2ccccc2c1` [Compound Z3, reference compound], the “Diff (qualitative assessment of neuron differentiation)” value (100 nM) is on record as “−”. Besides, the viability at 0.1 µM under setting [1] was 104 ± 4.2%.

Take `CCCCCCCCCCCCCCC(=O)Nc1ccc2nc(C)cnc2c1` [Compound F2, N-(2-methylquinoxalin-6-yl)pentadecanamide]: the “Diff (qualitative assessment of neuron differentiation)” value (100 nM) is “+++”. Moreover, the viability at 0.1 µM under setting [1] amounted to 120 ± 3.1%.

For the compound `CCCC(=O)Nc1ncnc2c1ncn2[C@@H]1O[C@@H]2COP(=O)(O)O[C@H]2[C@H]1OC(=O)CCC` [db-cAMP, dibutyryl cyclic AMP, reference compound], the “Diff (qualitative assessment of neuron differentiation)” value (100 nM) is on record as “+++”. Also, the “% Neurons relative to the control ±SEM” value under setting [1] stood at 149.9 ± 3.6%.

For the compound `C#CC(O)CCCCCCCCCCCCCCc1ccc2ccccc2n1` (stereo not drawn) [Compound N′3, 17-(quinolin-2-yl)heptadec-1-yn-3-ol], under “dopaminergic neurons, 8 days of culture”, the “neuroprotective activity (percentage of survival of dopaminergic neurons), in words, versus reference product db-cAMP” value is on record as “equal to or greater than that of the reference product”.

Source of the values: patent US8445511B2, “Quinoline or quinoxaline derivatives for treating neurodegenerative diseases” (Centre National de la Recherche Scientifique (SNRS), priority 2008, dated 2013).
